Experimental data reported in patent publication US12139487B2, “Compounds and uses thereof” (Foghorn Therapeutics Inc., priority 2022, dated 2024).

Legend:
[1] = test system: uveal melanoma and hematologic cancer cell lines versus other tested cell lines; assay: Growth of uveal melanoma, hematological and other cancer cell lines with Compound A (Cell-titer glo, day 3 and day 7, GI50); type: cell-based; details: day 7
Procedure: (§1) Procedure: Uveal melanoma cell lines (92-1, MP41, MP38, MP46), prostate cancer cell lines (LNCAP), lung cancer cell lines (NCI-H1299), and immortalized embryonic kidney lines (HEK293T) were plated into 96 well plates with growth media (see Table 9). […] Cells were incubated at 37 degrees Celsius for 3 days. After three days of treatment, the media was removed from the cells and 30 microliters of TrypLE (Gibco) was added to cells for 10 minutes. Cells were detached from the plates and resuspended with the addition of 170 microliters of growth media. Cells from two DMSO-treated control wells were counted, and the initial number of cells plated at the start of the experiment, were re-plated into fresh-compound containing plates for an additional four days at 37 degrees Celsius. At day 7, cells were harvested as described above. On day 3 and day 7, relative cell growth was measured by the addition of Cell-titer glo (Promega) and luminescence was measured on an Envision plate reader (Perkin Elmer). […] At the time of cell splitting on days 3 and 7, cells were split into new 96 well plates, and fresh compound was added four hours after re-plating.

[2] = test system: uveal melanoma cell lines 92-1 and MP41; assay: Comparison of Compound A with clinical PKC and MEK inhibitors in uveal melanoma cell lines (3 day growth); type: cell-based; details: vs LXS196 and Selumetinib
Procedure: Procedure: Uveal melanoma cell lines, 92-1 or MP41, were plated in 96 well plates in the presence of growth media (see […]). […] Cells were incubated at 37 degrees Celsius for 3 days. After three days of treatment, cell growth was measured with Cell-titer glow (Promega), and luminescence was read on an Envision plate reader (Perkin Elmer).

[3] = test system: uveal melanoma, hematologic cancer, prostate cancer, breast cancer and Ewing's sarcoma cell lines versus other tested cell lines; assay: Growth of uveal melanoma, hematological, prostate, breast cancer and Ewing's sarcoma cell lines with Compound B (day 3 and day 7); type: cell-based
Procedure: as §1
Procedure: All cell lines described above in Example 4 were also tested as described above with Compound B. In addition, the following cell lines were also tested as follows. […]

[4] = test system: uveal melanoma cell lines (92-1, MP41, MP38, MP46); assay: Growth of uveal melanoma and non-small cell lung cancer cell lines (3 day, Cell-titer glow); type: cell-based; details: 3 days; 0 to 10 micromolar; FIG. 5
Procedure: Procedure: Uveal melanoma cell lines (92-1, MP41, MP38, MP46) and Non-small cell lung cancer cells (NCIH1299) were plated into 96 well plates with growth media (see Table 9). BRG1/BRM ATPase inhibitor, compound 67, was dissolved in DMSO and added to the cells in a concentration gradient from 0 to 10 micromolar at the time of plating. Cells were incubated at 37° C. for 3 days. After three days of treatment, cell growth was measured with Cell-titer glow (Promega), and luminescence was read on an Envision plate reader (Perkin Elmer).

[5] = test system: uveal melanoma cell lines 92-1 and MP41; assay: Comparison of Compound B with clinical PKC and MEK inhibitors in uveal melanoma cell lines (3 day growth); type: cell-based; details: vs LXS196 and Selumetinib
Procedure: Procedure: Uveal melanoma cell lines, 92-1 or MP41, were plated in 96 well plates in the presence of growth media (see Table 9). BAF ATPase inhibitor (Compound B), PKC inhibitor (LXS196; MedChemExpress), and MEK inhibitor (Selumetinib; Selleck Chemicals) were dissolved in DMSO and added to the cells in a concentration gradient from 0 to 10 micromolar at the time of plating. Cells were incubated at 37° C. for 3 days. After three days of treatment, cell growth was measured with Cell-titer glow (Promega), and luminescence was read on an Envision plate reader (Perkin Elmer).

[6] = test system: parental MP41 and PKCi-resistant MP41 uveal melanoma cells; assay: 7-day growth inhibition assay in parental and PKC inhibitor-resistant MP41 cells; type: cell-based
Procedure: Procedure: MP41 uveal melanoma cells were made resistant to the PKC inhibitor (LXS196; MedChemExpress), by long-term culture in growth media (see Table 9) containing increasing concentrations of the compound, up to 1 micromolar. After 3 months, sensitivity of the parental MP41 cells and the PKC inhibitor (PKCi)-resistant cells to the PKC inhibitor (LXS196) or the BRG1/BRM ATPase inhibitor (Compound B) was tested in a 7-day growth inhibition assay as described above in Example 6.

[7] = test system: 92-1 uveal melanoma cells (subcutaneous tumors); assay: 92-1 uveal melanoma xenograft tumor growth in nude mice; type: in vivo; details: 3 weeks
Procedure: Procedure: Nude mice (Envigo) were engrafted subcutaneously in the axillary region with 5×10^6 92-1 uveal melanoma cells in 50% Matrigel. Tumors were grown to a mean of ˜200 mm^3, at which point mice were grouped and dosing was initiated. Mice were dosed once daily by oral gavage with vehicle (20% 2-Hydroxypropyl-β-Cyclodextrin) or increasing doses of Compound C. Tumor volumes and body weights were measured over the course of 3 weeks, and doses were adjusted by body weight to achieve the proper dose in terms of mg/kg. At this time, animals were sacrificed, and tumors were dissected and imaged.

`CSCC[C@H](NC(=O)c1ccc(N)cc1)C(=O)Nc1nc(-c2cccc(-c3ccncc3)c2)cs1` [Compound A] was tested, and the “duration of growth inhibition” value [1] was “maintained through day 7”, the “growth inhibition compared with clinical PKC and MEK inhibitors” value ([2]; 3 days, FIG. 2A, 2B) was “comparable growth inhibition” and the “onset of inhibition compared with clinical PKC and MEK inhibitors” value [2] was “faster onset of inhibition”.

For `CSCC[C@H](NC(=O)c1ccn(S(C)(=O)=O)c1)C(=O)Nc1nc(-c2cccc(-c3ccncc3)c2)cs1` [Compound B, (S)-1-(methylsulfonyl)-N-(4-(methylthio)-1-oxo-1-((4-(3-(pyridin-4-yl)phenyl)thiazol-2-yl)amino)butan-2-yl)-1H-pyrrole-3-carboxamide], the “sensitivity of cell lines to BRG1/BRM inhibition (growth)” value ([3]; breast cancer and Ewing's sarcoma cell lines vs other tested cell lines, FIG. 3) was “more sensitive to BRG1/BRM inhibition than the other tested cell lines”, the “duration of growth inhibition” value ([3]; breast cancer and Ewing's sarcoma cell lines, day 7) was “maintained through day 7” and the “growth inhibition in uveal melanoma cell lines” value [4] was “potent growth inhibition”. The “growth inhibition compared with clinical PKC and MEK inhibitors” value ([5]; 3 days, FIG. 6A, 6B) was “more potent effects on growth inhibition”, the “onset of growth inhibition compared with clinical PKC and MEK inhibitors” value [5] was “faster onset of growth inhibition” and the “sensitivity of PKCi-resistant cells relative to parental MP41 cells” value ([6]; FIG. 7B) was “more sensitive to Compound B than were the parental MP41 cells”. For the same compound, the “growth inhibition of PKCi-resistant and parental cell lines” value ([6]; both PKCi-resistant and parental MP41, FIG. 7B) was “strong growth inhibition”.

For `C[C@@H]1CN(c2cccc(-c3csc(NC(=O)CNC(=O)c4ccn(C(C)(C)C)c4)n3)n2)C[C@H](C)O1` [Compound C, 1-(tert-butyl)-N-(2-((4-(6-(cis-2,6-dimethylmorpholino)pyridin-2-yl)thiazol-2-yl)amino)-2-oxoethyl)-1H-pyrrole-3-carboxamide], the “tumor response at the highest dose” value ([7]; 50 mg/kg, once daily oral gavage) was “tumor regression”, the “tolerability / body weight” value ([7]; all treatments, FIG. 8C) was “well tolerated with no body weight loss observed” and the tumor growth inhibition ([7]; once daily oral gavage, increasing doses, FIG. 8A, 8B) was “tumor growth inhibition in a dose-dependent manner”.
